Structures can show the parent of a compound that is named as a salt.
Columns and labels:
human 5-HT1A receptors = biological target: T1, human 5-HT1A receptors (Homo sapiens, UniProt P08908); experiment: displacement of [3H] 8-OH-DPAT from the 5-HT1A serotonin receptor; type: binding; conditions: CHO cells stably transfected with human 5-HT1A receptors
T1 construct: expressed in transfected cells; host or cells: CHO cells
T1 sequence (P08908 1-422): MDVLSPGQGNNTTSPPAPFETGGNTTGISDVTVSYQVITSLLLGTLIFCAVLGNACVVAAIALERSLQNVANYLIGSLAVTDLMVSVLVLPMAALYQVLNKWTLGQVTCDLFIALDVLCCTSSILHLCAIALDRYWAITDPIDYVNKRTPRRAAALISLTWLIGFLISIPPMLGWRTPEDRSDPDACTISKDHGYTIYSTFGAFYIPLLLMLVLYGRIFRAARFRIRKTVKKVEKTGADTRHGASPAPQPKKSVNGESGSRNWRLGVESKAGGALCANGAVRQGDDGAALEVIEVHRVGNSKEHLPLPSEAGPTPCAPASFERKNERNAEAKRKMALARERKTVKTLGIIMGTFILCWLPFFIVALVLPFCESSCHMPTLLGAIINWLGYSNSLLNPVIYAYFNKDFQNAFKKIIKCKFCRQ

5-HT transporter = 5-HT transporter (Rattus norvegicus, UniProt P31652); experiment: Rat Brain 3H-Paroxetine Binding Assay (RB 5HT Transporter); conditions: rat frontal cortical membranes; 3H-paroxetine 0.1 nM, 60 min, 25° C.
Sequence of 5-HT transporter (P31652 whole entry): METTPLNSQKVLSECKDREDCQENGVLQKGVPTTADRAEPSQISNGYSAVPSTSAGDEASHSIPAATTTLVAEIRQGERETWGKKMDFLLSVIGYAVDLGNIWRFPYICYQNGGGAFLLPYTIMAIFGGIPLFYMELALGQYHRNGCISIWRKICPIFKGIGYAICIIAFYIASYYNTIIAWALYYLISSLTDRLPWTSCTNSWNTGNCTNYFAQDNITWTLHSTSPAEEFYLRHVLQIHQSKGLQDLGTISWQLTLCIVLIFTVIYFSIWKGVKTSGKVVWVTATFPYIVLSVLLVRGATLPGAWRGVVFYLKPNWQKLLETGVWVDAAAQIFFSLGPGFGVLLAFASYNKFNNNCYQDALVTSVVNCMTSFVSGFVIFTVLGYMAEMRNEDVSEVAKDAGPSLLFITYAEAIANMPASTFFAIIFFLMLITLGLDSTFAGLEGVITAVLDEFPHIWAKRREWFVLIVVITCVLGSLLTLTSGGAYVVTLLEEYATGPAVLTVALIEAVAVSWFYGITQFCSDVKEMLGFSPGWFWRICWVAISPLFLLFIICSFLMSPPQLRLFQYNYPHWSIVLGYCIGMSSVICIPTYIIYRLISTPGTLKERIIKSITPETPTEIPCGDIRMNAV
From the text: Rat Brain ^3H-Paroxetine Binding Assay (RB 5HT Transporter):
This assay was used to determine a compound's affinity of the 5-HT transporter.
All reactions were terminated by the addition of ice cold Tris buffer followed by rapid filtration using a Tom Tech filtration device to separate bound from free ^3H-paroxetine.

Row | melting point | Ki (human 5-HT1A receptors) | Ki (5-HT transporter) | SMILES
1 |  | 1.77 nM | 130 nM | COc1ccc2occ(CC(C)N3CCN(c4cc(C)cc5cccnc45)CC3)c2c1 (stereo not shown) [Compound 40, 6-methyl-8-{4-[2-(5-methoxy-1-benzofuran-3-yl)-1-methylethyl)piperazin-1-yl]quinoline]
2 |  | 1.99 nM | 89 nM | COc1ccc2occ([C@H]3CC[C@H](N4CCN(c5ccc(Cl)c6cccnc56)CC4)CC3)c2c1 [Compound 66, 5-chloro-8-{4-[4-trans(5-methoxy-1-benzofuran-3-yl)cyclohexyl]piperazin-1-yl}quinoline]
3 | 55 to 58 °C |  |  | COc1cccc2c(C(C)CN3CCN(c4cc(Cl)cc5cccnc45)CC3)coc12 (stereo not shown) (as salt: HCl) [Compound 33, 8-{4-[2-(7-methoxy-1-benzofuran-3-yl)propyl]-1-piperazinyl}-6-chloro-quinoline]
4 |  | 0.34 nM | 5.5 nM | COc1ccc2occ(CC(C)N3CCN(c4cc(Cl)cc5cccnc45)CC3)c2c1 (stereo not shown) [Compound 39, 6-chloro-8-{4-[2-(5-methoxy-1-benzofuran-3-yl)-1-methylethyl)piperazin-1-yl]quinoline]
5 |  | 0.91 nM | 4.17 nM | COc1cccc2c(C(C)CN3CCN(c4cccc5cccnc45)CC3)coc12 (stereo not shown) [Compound 31, 8-{4-[2-(7-methoxy-1-benzofuran-3-yl)propyl]-1-piperazinyl}quinoline]
6 | 193 to 194 °C | 162 nM |  | COc1cc(N2CCN([C@H]3CC[C@H](c4cc5ccccc5s4)CC3)CC2)c2ncccc2c1 [Compound 71]
7 |  | 0.23 nM | 4.16 nM | COc1cc(N2CCN(C(C)Cc3coc4c(OC)cccc34)CC2)c2ncccc2c1 (stereo not shown) [Compound 36, 6-methoxy-8-{4-[2-(7-methoxy-1-benzofuran-3-yl)-1-methylethyl)piperazin-1-yl]quinoline]

The next lines start with the molecule.

Row | SMILES | melting point | Ki (human 5-HT1A receptors) | Ki (5-HT transporter)
8 | COc1cc(N2CCN(CCc3coc4ccc(F)cc34)CC2)c2ncccc2c1 (as salt: HCl) [Compound 16, 8-{4-[2-(5-fluoro-1-benzofuran-3-yl)ethyl]-1-piperazinyl}-6-methoxy-quinoline] | 80 °C |  | 
9 | COc1cccc2c(C(C)CN3CCN(c4cccc5cccnc45)CC3)coc12 (stereo not shown) (as salt: HCl) [Compound 31, 8-{4-[2-(7-methoxy-1-benzofuran-3-yl)propyl]-1-piperazinyl}quinoline] | 192 °C |  | 
10 | Cc1cc(N2CCN(CCc3coc4ccccc34)CC2)c2ncccc2c1 [Compound 3, 8-{4-[2-(1-benzofuran-3-yl)ethyl]-1-piperazinyl}-6-methylquinoline] |  | 1.93 nM | 14 nM
11 | COc1ccc2c(CCN3CCN(c4cc(C)cc5cccnc45)CC3)coc2c1 [Compound 10, 8-{4-[2-(6-methoxy-1-benzofuran-3-yl)ethyl]-1-piperazinyl}-6-methyl-quinoline] |  | 0.94 nM | 97 nM
12 | Clc1cc(N2CCN(CCc3coc4ccc(Cl)cc34)CC2)c2ncccc2c1 [Compound 13, 8-{4-[2-(5-chloro-1-benzofuran-3-yl)ethyl]-1-piperazinyl}-6-chloro-quinoline] |  | 41.3 nM | 64 nM
13 | COc1cc(N2CCN(CCc3coc4ccc(OC)cc34)CC2)c2ncccc2c1 [Compound 25, 8-{4-[2-(5-methoxy-1-benzofuran-3-yl)ethyl]-1-piperazinyl}-6-methoxy-quinoline] |  | 8.71 nM | 47 nM
14 | Fc1cc(N2CCN(CCc3coc4ccc(F)cc34)CC2)c2ncccc2c1 (as salt: HCl) [Compound 17, 8-{4-[2-(5-fluoro-1-benzofuran-3-yl)ethyl]-1-piperazinyl}-6-fluoro-quinoline] | 55 °C |  | 
15 | COc1cccc2c(CCN3CCN(c4cc(Cl)cc5cccnc45)CC3)coc12 (as salt: HCl) [Compound 20, 8-{4-[2-(7-methoxy-1-benzofuran-3-yl)ethyl]-1-piperazinyl}-6-chloro-quinoline] | 248 °C |  | 
